Reference: publication PMC8344233, “Anticancer activity and toxicity of new quaternary ammonium geldanamycin derivative salts and their mixtures with potentiators” (Journal of Enzyme Inhibition and Medicinal Chemistry, 2021)
≈ marks a conversion by molar mass, not a printed value. Read-outs that look alike come from different tables or passages of the source.

Experiments:
HDF = assay: SRB cytotoxicity assay, human dermal fibroblasts HDF; type: cell-based; details: 72 h, ± SD, mixtures equimolar 1:1, read-out: IC50 HDF (toxicity in normal cells)
Experimental: (§1) Medium. Human Dermal Fibroblasts cell line (HDF) was cultured in Fibroblast Basal Medium.
(§2) Each medium was supplemented with 10% fetal bovine serum, 1% L-glutamine, and 1% penicillin/streptomycin solution. The cell lines were kept in the incubator at 37◦C. The optimal plating density of cell lines was determined to be 5 × 104. All the cell lines and mediums were obtained from American Type Culture Collection (ATCC) supplied by LGC-Standards. The protein-staining SRB (Sigma-Aldrich) microculture colorimetric assay, developed by the National Cancer Institute (USA) for in vitro antitumor screening was used in this study, to estimate the cell number by providing a sensitive index of total cellular protein content, being linear to cell density. The monolayer cell culture was trypsinized and the cell count was adjusted to 5 × 10^4 cells. To each well of the 96 well microtiter plate, 0.1 mL of the diluted cell suspension (approximately […]) was added. After 24 hours, when a partial monolayer was formed, the supernatant was washed out and 100 μL of six different compound concentrations (0.1, 0.2, 1, 2, 10, and 20 μM) were added to the cells in microtitre plates. The tested compounds were dissolved in DMSO (containing 10 % of water) (100 μL) and the […]
(§3) lines. The cells were exposed to compounds for 72 hours at 37 °C in a humidified atmosphere (90% RH) containing 5% CO2. After that, 25 μL of 50 % trichloroacetic acid was added to the wells and the plates were incubated for 1 hour at 4◦C. The plates were then washed out with the distilled water to remove traces of medium and next dried by the air. The air-dried plates were stained with 100 μL of 0.4% sulforhodamine B (prepared in 1 % acetic acid) and kept for 30 minutes at room temperature. The unbound dye was removed by rapidly washing with 1% […]
(§4) acetic acid and then air dried overnight. The protein-bound dye was dissolved in 100 μL of 10 mM unbuffered Tris base (pH 10.5) for optical density determination at 490 nm. All cytotoxicity experiments were performed three times. Cell survival was measured as the percentage absorbance compared to the control (nontreated cells). Cytarabine (ara-C) and GDM were used as the internal standards. Additionally biological assays were performed in Human Dermal Fibroblasts cell line (HDF) in aim to evaluate cytotoxicity of GDM and its 1-13 analogs in healthy cells. SI indexes were calculated from equation SI = IC50 normal cell line HDF/IC50 respective cancerous cell line (Table 2). A beneficial SI > 1.0 indicates a compound with efficacy against tumor cell greater than the toxicity against normal cells. […]

cancer cell lines = assay: Cytotoxicity, values summarised over several cancer cell lines; type: cell-based, human
Experimental: Human cancer cells SKBR-3 (human breast cancer cell line) and SKOV-3 (ovarian cancer cell line) were cultured in McCoy’s Modified Medium. Human cancer cells PC-3 (human prostate cancer cell line) were cultured in F-12K medium, as well as A549 cell line (lung cancer cell line). U-87MG cells (glioblastoma cell line) were cultured in Eagle’s Minimal Essential Medium. Human Dermal Fibroblasts cell line (HDF) was cultured in Fibroblast Basal Medium.
as §2, §3
acetic acid and then air dried overnight. The protein-bound dye was dissolved in 100 μL of 10 mM unbuffered Tris base (pH 10.5) for optical density determination at 490 nm. All cytotoxicity experiments were performed three times. Cell survival was measured as the percentage absorbance compared to the control (nontreated cells). Cytarabine (ara-C) and GDM were used as the internal standards. Additionally biological assays were performed in Human Dermal Fibroblasts cell line (HDF) in aim to evaluate cytotoxicity of GDM and its 1-13 analogs in healthy cells. SI indexes were calculated from equation SI = IC50 normal cell line HDF/IC50 respective cancerous cell line (Table 2). A beneficial SI > 1.0 indicates a compound with efficacy against tumor cell greater than the toxicity against normal cells.
(§5) All experiments were carried out with human breast adenocarcinoma (MDA-MB-231 and MCF-7), hepatocellular carcinoma (HepG2), human cervical adenocarcinoma (HeLa) cancer cell lines, and human normal lung fibroblast (CCD39Lu) cell line. The cell line was purchased from the European Collection of Cells Cultures (ECACC, Salisbury, UK), and cultured in DMEM with phenol red supplemented with 10% (v/v) FBS, 1% (v/v) penicillin/streptomycin, and 1% (v/v) L-glutamine at 37 °C, in a humidified atmosphere containing 5% CO2.
(§6) The tested compounds were dissolved in DMSO to the final concentration 10 mM and stored […]
(§7) The cytotoxic effect of the tested compounds was determined by MTT assay. MDA-MB-231, MCF-7, HepG2, HeLa, and CCD39Lu cells were seeded in 96 wells plates at density 2x10^4 cells/well and incubated overnight under cell culture condition. Next, cells were treated with tested compounds at concentrations of 10 µM; 5 µM; 2.5 µM; 1.2 µM; 0.6 µM; 0.3 µM; 0.15 […]

physchem = details: water, Solubility SH2O
CCD39Lu = assay: MTT cytotoxicity assay, normal lung fibroblasts CCD39Lu; type: cell-based; details: Fibroblast, ± SD, healthy human lung fibroblasts, 72 h, read-out: IC50 CCD39Lu (toxicity in normal cells)
Experimental: (§8) Cell survival was measured as the percentage absorbance compared to the control (nontreated cells). […]
(§9) SI indexes were calculated from equation SI = IC50 normal cell line HDF/IC50 respective cancerous cell line (Table 2). A beneficial SI > 1.0 indicates a compound with efficacy against tumor cell greater than the toxicity against normal cells.
as §5, §6, §7
(§10) µM. Moreover, GDM (for MCF-7) and 8 (for MCF-7 and MDA-MB-231) due to high cytotoxicity, were additionally tested at a lower concentration range of 2.5 µM; 1.2 µM; 0.6 µM; 0.3 µM; 0.15µM; 0.07 µM; 0.03 µM. DMSO was used as a control, and the concentration […]
(§11) Tested compounds were added to cells in the medium without phenol red. Cells were incubated 72 h at 37 °C in a humidified atmosphere containing 5% CO2.
(§12) Then, the medium was aspirated and MTT solution at a concentration of 0.59 mg/mL in cell culture medium was added to each well. Plates were incubated for 1.5 hours at 37 °C, and then plates were centrifuged for 3 minutes. The formazan crystals were dissolved in 200 µl DMSO and plates were agitated on a plate shaker at 300 –500 rpm for 10 minutes. Absorbance at 570 nm was measured using a plate reader (Biotek Instruments, Elx -800). Data were normalized to the mean absorption of control cells. All experiments were performed at least three times. […]

MDA-MB-231 = assay: MTT cytotoxicity assay, MDA-MB-231 (1st panel); type: cell-based, human; details: for IC50: Homo sapiens, MDA-MB-231, ± SD, MTT, 72 h; for selectivity index SI (MDA-MB-231): IC50 normal cell line CCD39Lu/IC50 MDA-MB-231
Experimental: as §8, §9, §5, §6, §7, §10, §11, §12

SKBR-3 = assay: SRB cytotoxicity assay, SKBR-3 (2nd panel); type: cell-based, human; details: for IC50: Homo sapiens, SK-BR-3, ± SD, SRB, 72 h, mixtures equimolar 1:1; for selectivity index SIHDF (SKBR-3): IC50 normal cell line HDF/IC50 SKBR-3
Experimental: Human cancer cells SKBR-3 (human breast cancer cell line) and SKOV-3 (ovarian cancer cell line) were cultured in McCoy’s Modified Medium. […]
as §1, §2, §3, §4

[1] = Homo sapiens, SKBR-3, SKOV-3, PC-3, U-87 and A-549, approximate level or span, read-out: IC50 in 2nd panel of cancer cell lines

| SMILES | CC50 (HDF) | IC50 (cancer cell lines; [1]) | IC50 (cancer cell lines; SKBR-3, SKOV-3, PC-3, U-87 and A-549, approximate level or span, read-out: IC50 in 2nd panel of cancer cell lines) | solubility (physchem) | IC50 (CCD39Lu) | IC50 (MDA-MB-231) | selectivity index SI (MDA-MB-231) (MDA-MB-231) | IC50 (SKBR-3) | selectivity index SIHDF (SKBR-3) (SKBR-3) | IC50 (cancer cell lines; Homo sapiens, MDA-MB-231, MCF-7, HeLa and HepG2, read-out: IC50s in 1st panel of cancer cell lines) | IC50 (cancer cell lines; Homo sapiens, span over the four cell lines, read-out: IC50s in MCF-7, MDA-MB-231, A549 and HeLa) | SI indexes (1st panel, text summary) (cancer cell lines; vs CCD39Lu, Table 1) | IC50 (cancer cell lines; Homo sapiens, approximate level over the three cancer cell lines, mixtures equimolar 1:1, read-out: IC50 in SKBR-3, SKOV-3 and PC-3) |
| --- | --- | --- | --- | --- | --- | --- | --- | --- | --- | --- | --- | --- | --- |
| C/C=C/C[N+]12CCC(CC1)C(NC1=C3C[C@@H](C)C[C@H](OC)[C@H](O)[C@@H](C)/C=C(\C)[C@H](OC(N)=O)[C@@H](OC)/C=C\C=C(/C)C(=O)NC(=CC1=O)C3=O)C2 (stereo partly drawn) [Compound 10] | 2960 ± 360 nM | ~1700 nM | 1290 to 1940 nM | > 5000 µg/mL | > 10000 nM | 4640 ± 1510 nM | > 2.16 | 1940 ± 520 nM | 1.53 | – | – | – | – |
| CO[C@H]1/C=C\C=C(/C)C(=O)NC2=CC(=O)C(NC3CN4CCC3CC4)=C(C[C@@H](C)C[C@H](OC)[C@H](O)[C@@H](C)/C=C(\C)[C@@H]1OC(N)=O)C2=O (stereo partly drawn) [Compound 8] | 3220 ± 180 nM | – | – | 150 µg/mL (≈ 229 µM) | 870 ± 220 nM | 140 ± 10 nM | 6.21 | 1490 ± 290 nM | 2.16 | 100 to 1000 nM | 90 to 1060 nM | < 1 | – |
| CO[C@H]1/C=C\C=C(/C)C(=O)NC2=CC(=O)C(NC3CCC3)=C(C[C@@H](C)C[C@H](OC)[C@H](O)[C@@H](C)/C=C(\C)[C@@H]1OC(N)=O)C2=O [Compound 1] | 30000 nM | ~7500 nM | – | – | > 10000 nM | 2450 ± 780 nM | > 4.08 | 7440 ± 90 nM | 4.03 | – | – | – | – |
| CO[C@H]1/C=C\C=C(/C)C(=O)NC2=CC(=O)C(NC3C[N+]4(C/C=C/c5ccccc5)CCC3CC4)=C(C[C@@H](C)C[C@H](OC)[C@H](O)[C@@H](C)/C=C(\C)[C@@H]1OC(N)=O)C2=O (stereo partly drawn) [Compound 13] | ~3810 nM | 2000 to 3000 nM | – | > 5000 µg/mL | > 10000 nM | 4660 ± 2490 nM | > 2.15 | 2020 ± 110 nM | 1.89 | – | – | – | ~2000 nM |
| C=CC[N+]12CCC(CC1)C(NC1=C3C[C@@H](C)C[C@H](OC)[C@H](O)[C@@H](C)/C=C(\C)[C@H](OC(N)=O)[C@@H](OC)/C=C\C=C(/C)C(=O)NC(=CC1=O)C3=O)C2 (stereo partly drawn) [Compound 9] | ~5290 nM | 2000 to 3000 nM | – | – | > 10000 nM | 4650 ± 2650 nM | > 2.15 | 3120 ± 10 nM | 1.70 | – | – | – | – |
